Patent US20170058349A1, “METHODS FOR MANAGING CARE OF PATIENTS PREDISPOSED TO PROGRESSIVE MITRAL VALVE DISEASES” (The Children's Hospital of Philadelphia, priority 2014, published 2017)

Columns and labels:
[1] = system: human MVICs; test: MVIC activation in vitro (SMA expression after 5HT stimulation); type: cell-based; conditions: for VIC activation associated with 5HTR activation: human MVICs in vitro, antagonists of 5HTR2A, 2B and SERT; for SMA expression on 5HT stimulation: 5HT 10 nM
Procedure: MVICs isolated from healthy controls and patients with LL, LS, SS gene polymorphisms were treated with […] 5HT for 6 days in the presence or absence of a combination of 5HT2A antagonist Ketanserin, 5HT2B antagonist SDZ, and SERT antagonist Fluoxetine. RNA was isolated and tested for SMA expression as a marker of MVIC activation.
MVICs were isolated form patients with LL, LS, or SS genotype and controls (N=5/group) and exposed to 5HT stimulation (10 nM) to measure MVICs activation by alpha smooth muscle actin (SMA) as previously described by Rachana et al. (Journal of cellular physiology 227(6): 2595-604, November 2011. PMCID: PMC3288540) and Poggio et al. (Cardiovascular research 98(3): 402-10, June 2013. PMCID: PMC3656614). A combination of 5HT2A, 2B and SERT antagonists was used to inhibit 5HT stimulation in the three different genotypes (LL, LS, SS) with 10 μM ketanserin, 1 μM SDZ SER-082, and 1 μM Fluoxitine. (FIG. 4). RNA extract was collected to detect SMA expression.

[2] = system: C57BL/6J mice; test: Chronic angiotensin II infusion, remodeling of the mitral valve tissue in mice; type: in vivo; conditions: 28 days chronic infusion; for ECM remodeling of MV leaflets / 5HTR2A, 5HTR2B and SERT expression in MV leaflets: AngII vs. saline; for ECM remodeling of MV leaflets: histology; for 5HTR2A, 5HTR2B and SERT expression in MV leaflets: immunohistochemistry
From the text: (A) Representative H&E staining of cross section of mice hearts harvested 28 days after saline or AngII chronic infusion. (B) Modified Movat Pentachrome staining of MV leaflets harvested 28 days after saline or AngII chronic infusion (Magnification 10× and 43×). (C) and (D) Immunohistochemistry staining of murine MV leaflets using anti-5HTR2A and anti-5HTR2B antibodies, respectively.
We have recently reported that reactive oxygen species (ROS) accumulation is leading aortic VICs activation ex vivo and in vitro with results showing that adenoviral delivery of antioxidant enzymes ameliorates aortic VICs activation. We therefore used our murine model based on chronic AngII infusion to reproduce ROS accumulation in the cardiac tissue (Branchetti et al., Cardiovasc Res. 2013; 100(2):316-324) to test whether we could provoke MV remodeling.

With `CN1CC[C@@H]2CN3CCc4cccc(c43)[C@@H]2C1` [SDZ, SDZ SER-082] the “VIC activation associated with 5HTR activation” value (“VIC activation associated” below) [1] was “partially abrogate this effect”.
In the case of `CNCCC(Oc1ccc(C(F)(F)F)cc1)c1ccccc1` (stereo not shown) [Fluoxetine], the “VIC activation associated” value [1] is reported as “partially abrogate this effect”.
“Angiotensin II (DRVYIHPF; Angiotensin-2; UniProt P11859 25-32, looked up) [AngII, chronically infused to induce ROS accumulation and MV remodeling in mice]” was tested, and the “mitral valve cusp thickness” value ([2]; AngII treated vs. saline infused mice, p<0.01) was “increased”, the “ECM remodeling of MV leaflets” value [2] was “significant rearrangement of the ECM” and the “ECM remodeling of MV leaflets” value ([2]; listed as Angiotensin II) was “ECM remodeling”. For the same compound, the “5HTR2A, 5HTR2B and SERT expression in MV leaflets” value [2] was “increased 5HTR2A and 2B and SERT” and the “5HTR2A, 5HTR2B and SERT expression in MV leaflets” value ([2]; listed as Angiotensin II) was “increased 5HTR-2B/SERT expressions”.
`NCCc1c[nH]c2ccc(O)cc12` [5HT, serotonin] was tested, and the “SMA expression on 5HT stimulation” value ([1]; MVICs from patients with LL genotype) was “significant upregulation of SMA” and the “SMA expression on 5HT stimulation” value ([1]; MVICs from patients with SS and LS genotype) was “not responsive”.
For `O=C(c1ccc(F)cc1)C1CCN(CCn2c(=O)[nH]c3ccccc3c2=O)CC1` [Ketanserin], the “VIC activation associated” value [1] was “partially abrogate this effect”.
